{"source": "patent US11027029B2", "about": "“Peptide thiourea derivative, radioisotope labeled compound containing same, and pharmaceutical composition containing same as active ingredient for treating or diagnosing prostate cancer” (CELLBION CO., LTD, priority 2015, dated 2021)", "biological_target": "T1, PSMA positive 22Rv1 cells (Homo sapiens, UniProt Q04609)", "T1 construct": "endogenous in cells; host or cells: 22Rv1 prostate cancer cells", "T1 sequence (Q04609 whole entry)": "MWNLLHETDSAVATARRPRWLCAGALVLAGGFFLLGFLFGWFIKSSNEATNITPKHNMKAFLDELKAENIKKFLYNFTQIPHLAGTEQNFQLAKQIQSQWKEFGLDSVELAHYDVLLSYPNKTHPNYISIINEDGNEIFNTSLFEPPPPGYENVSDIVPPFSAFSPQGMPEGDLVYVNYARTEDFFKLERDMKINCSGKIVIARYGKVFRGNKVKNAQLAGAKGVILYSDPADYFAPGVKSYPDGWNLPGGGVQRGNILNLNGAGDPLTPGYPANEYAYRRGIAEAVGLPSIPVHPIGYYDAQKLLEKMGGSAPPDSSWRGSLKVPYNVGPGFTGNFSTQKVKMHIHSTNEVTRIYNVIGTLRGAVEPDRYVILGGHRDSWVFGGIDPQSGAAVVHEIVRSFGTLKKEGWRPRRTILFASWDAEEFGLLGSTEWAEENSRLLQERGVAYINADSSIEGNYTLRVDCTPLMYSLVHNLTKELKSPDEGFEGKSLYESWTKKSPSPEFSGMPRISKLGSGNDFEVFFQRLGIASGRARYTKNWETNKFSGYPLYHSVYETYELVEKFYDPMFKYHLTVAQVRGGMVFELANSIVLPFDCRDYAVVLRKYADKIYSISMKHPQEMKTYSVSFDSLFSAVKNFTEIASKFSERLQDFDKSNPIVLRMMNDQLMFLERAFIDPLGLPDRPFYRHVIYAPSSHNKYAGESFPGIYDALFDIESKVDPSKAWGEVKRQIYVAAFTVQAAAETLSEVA", "experiment": "In vitro competitive inhibition cell binding test against I-125-MIP-1072", "conditions": "1.85 kBq I-125-MIP-1072, 1 hour, nonlinear regression analysis, read-out: IC50 (inhibition of binding between 22Rv1 cells and I-125-MIP-1072)", "experimental": "To perform in vitro competitive inhibition cell binding test of Ga-NOTA-SCN-GUL, the following experiment was conducted.\nThe PSMA positive prostate cancer cell line 22Rv1 was loaded in a 24-well plate at the density of 2×10^5 cells/well, followed by culture in a 37[…] 5% CO2 incubator for 24 hours. Ga-NOTA-SCN-GUL prepared in Example 2 was diluted 2-fold serially with the cell culture medium containing 0.5% bovine serum albumin. The diluted sample was added to the cultured cells (0.5 mL/well), to which 1.85 kBq (S)-2-(3-((S)-1-carboxy-5-((4-iodobenzyl)amino)pentyl)ureido)pentanedioic acid (I-125-MIP-1072) was added (0.5 mL/well). After well mixed, the mixture was cultured in a 37[…] 5% CO2 incubator for 1 hour. The culture medium was discarded, and the cells were washed with fresh medium twice, to which 0.5% sodium dodecyl sulfate (SDS) dissolved in PBS was added (1 mL/well). The mixture was gently shaken for complete dissolving, and then loaded in a 5 mL disposable plastic test tube. Then, the radioactivity was measured with a gamma counter.", "note": "pIC50: −log10 of the molar value."}
{"smiles": "O=C(O)CCC(NC(=O)NC(CCCCNC(=S)Nc1ccc(CC2CN3CCN4CCN2CC(=O)[O][Ga]([O]C(=O)C4)[O]C(=O)C3)cc1)C(=O)O)C(=O)O", "note": "(stereo not shown) [Example 2]", "values": [{"measurement": "pIC50", "result": 7.74}]}
